Patent US9981945B2, “Pyrimidine derivatives as CFTR modulators” (NuBridge BioSciences, priority 2015, dated 2018)

Molecular target: T1, ΔF508 mutant CFTR (Homo sapiens, UniProt P13569, DEL508-508)
T1 construct: expressed in transfected cells; host or cells: Fischer rat thyroid (FRT) cells
Assay: Fluorescence (YFP halide quenching) assay of ΔF508 mutant CFTR activity in FRT cells
Type: cell-based
Design: key: fold of mean activity with forskolin alone (I− quenching rate)
Details: FRT cells expressing ΔF508-CFTR and YFP-H148Q/I152L, rescued at 27° C. 20-24 h; forskolin 20 μM + test compound 20 μM for 20 min; I− influx rate normalized to forskolin alone
Description: The ΔF508 mutant CFTR activities of the CFTR modulators are detected using the Fluorescence Assay developed by Pedemonte (Pedemonte N., et al., Antihypertensive 1,4-dihydropyridines as correctors of the cystic fibrosis transmembrane conductance regulator channel gating defect caused by cystic fibrosis mutations, Mol. Pharmacol., 2005, 68, 1736-1746).
Fischer rat thyroid (FRT) cells, stably transfected with ΔF508 were retransfected with the YFP-H148Q/I152L fluorescent protein. The cells were plated (100,000 cells/well) on black 96-well microplates with clear plastic bottom (Corning Life Sciences, Acton, Mass.).
The 96-well microplates containing FRT cells expressing F508-CFTR and the halide-sensitive YFP were incubated at 27° C. for 20 to 24 h to allow rescue of the mutant protein to the plasma membrane. After incubation, cells were washed with PBS (containing 137 mM NaCl, 2.7 mM KCl, 8.1 mM Na2HPO4, 1.5 mM KH2PO4, 1 mM CaCl2, and 0.5 mM MgCl2) and stimulated for 20 min with forskolin (20 μM) and test compounds (20 μM) in a final volume of 60 μl. Microplates were then transferred to a microplate reader for CFTR activity determination. Each assay consisted of a continuous 14-s fluorescence reading (5 points per second) with 2 s before and 12 s after injection of 165 μl of an iodide-containing solution (PBS with Cl^− replaced by I^−). Final iodide concentration in the wells was 100 mM. […] To determine I^− influx rate, the final 11 s of the data for each well were fitted with an exponential function to extrapolate initial slope. CFTR activity was determined by measuring the rate of fluorescence quenching induced by extracellular addition of I^−. Data are normalized to the mean activity measured in the presence of forskolin alone.

T1 sequence (P13569 with tags, fused parts or gaps DEL508-508): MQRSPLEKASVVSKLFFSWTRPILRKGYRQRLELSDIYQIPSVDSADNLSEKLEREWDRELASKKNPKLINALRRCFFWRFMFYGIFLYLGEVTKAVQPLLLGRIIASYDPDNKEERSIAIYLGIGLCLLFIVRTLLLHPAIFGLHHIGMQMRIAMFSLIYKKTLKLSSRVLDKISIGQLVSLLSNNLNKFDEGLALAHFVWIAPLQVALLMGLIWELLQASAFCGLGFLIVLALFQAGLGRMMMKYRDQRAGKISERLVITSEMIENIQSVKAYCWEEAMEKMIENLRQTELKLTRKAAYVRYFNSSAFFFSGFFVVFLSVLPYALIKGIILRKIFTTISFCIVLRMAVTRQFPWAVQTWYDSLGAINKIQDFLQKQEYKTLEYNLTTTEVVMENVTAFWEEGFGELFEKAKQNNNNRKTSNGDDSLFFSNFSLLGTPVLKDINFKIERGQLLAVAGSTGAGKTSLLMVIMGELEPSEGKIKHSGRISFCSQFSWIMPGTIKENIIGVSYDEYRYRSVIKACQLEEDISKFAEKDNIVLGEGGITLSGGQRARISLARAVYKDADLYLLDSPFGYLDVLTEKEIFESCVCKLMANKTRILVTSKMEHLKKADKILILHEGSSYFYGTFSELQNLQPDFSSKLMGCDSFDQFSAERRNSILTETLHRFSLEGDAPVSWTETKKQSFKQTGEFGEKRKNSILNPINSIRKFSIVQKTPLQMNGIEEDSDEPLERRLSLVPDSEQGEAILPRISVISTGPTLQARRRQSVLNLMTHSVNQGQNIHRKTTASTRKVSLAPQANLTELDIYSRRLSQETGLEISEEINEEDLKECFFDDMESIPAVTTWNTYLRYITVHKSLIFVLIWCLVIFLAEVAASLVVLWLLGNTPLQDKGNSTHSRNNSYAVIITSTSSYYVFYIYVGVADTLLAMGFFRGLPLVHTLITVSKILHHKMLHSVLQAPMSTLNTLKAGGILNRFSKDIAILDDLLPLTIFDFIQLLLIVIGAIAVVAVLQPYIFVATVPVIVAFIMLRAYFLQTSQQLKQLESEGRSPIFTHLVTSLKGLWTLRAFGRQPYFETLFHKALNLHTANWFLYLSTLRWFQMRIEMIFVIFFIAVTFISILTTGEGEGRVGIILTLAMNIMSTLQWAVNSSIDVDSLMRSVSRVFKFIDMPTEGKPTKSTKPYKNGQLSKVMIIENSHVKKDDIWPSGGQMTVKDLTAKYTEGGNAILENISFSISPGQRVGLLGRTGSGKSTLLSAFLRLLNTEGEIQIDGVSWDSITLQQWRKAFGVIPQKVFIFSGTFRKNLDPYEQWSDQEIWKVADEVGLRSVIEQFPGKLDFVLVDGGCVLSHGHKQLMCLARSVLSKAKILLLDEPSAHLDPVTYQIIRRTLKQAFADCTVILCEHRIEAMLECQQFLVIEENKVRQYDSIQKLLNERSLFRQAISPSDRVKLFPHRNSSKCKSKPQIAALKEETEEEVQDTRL

- CFTR Activity: 3.0
Compound: Cl.NC1CCCC(Oc2ncncc2NC(=O)c2ccc(F)c(-c3c(F)cccc3F)n2)C1 (stereo not shown) [Example 11, N-(4-((3-aminocyclohexyl)oxy)pyrimidin-5-yl)-6-(2,6-difluorophenyl)-5-fluoropicolinamide hydrochloride]
